Test results from patent US20230114728A1 (Venatorx Pharmaceuticals, Inc., priority 2019, published 2023).
In brackets after ≈: the same amount, converted by molar mass.

Experiments:
Test in all cases: Broth microdilution MIC in iron-depleted CAMHB (IDM)
Type in all cases: cell-based
[1] = test system: A. baumannii ATCC 17978; settings: Acinetobacter baumannii, ATCC17978, read-out: Minimum Inhibitory Concentration, ATCC 17978
In short: (§1)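 Iron-limited medium: CAMHB chelated with Chelex 100, cations restored, pH 7.3. CLSI-based microdilution, 2-8×10^5 CFU/mL inoculum, 37° C for 16-20 h (P. aeruginosa) or 20-24 h (A. baumannii). Endpoint is no visible growth.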

[2] = test system: A. baumannii IL123 (ABΔ3-ARAEcPore); settings: Acinetobacter baumannii, read-out: Minimum Inhibitory Concentration, IL-2123
In short: as §1

[3] = test system: A. baumannii CDC-0036 OXA-65, and OXA-24; settings: Acinetobacter baumannii, read-out: Minimum Inhibitory Concentration, CDC-0036
In short: as §1

[4] = test system: A. baumannii ATCC 19606; settings: Acinetobacter baumannii, ATCC19606, read-out: Minimum Inhibitory Concentration, ATCC 19606
In short: as §1

[5] = test system: P. aeruginosa ATCC 35151; settings: Pseudomonas aeruginosa, ATCC35151; iron-depleted MHB (IDM); hyper-permeable strain; read-out: Minimum Inhibitory Concentration, P. aeruginosa ATCC 35151
In short: as §1

[6] = test system: P. aeruginosa CDC-0090 producing KPC-5, OXA-50, and PAO; settings: Pseudomonas aeruginosa, read-out: Minimum Inhibitory Concentration, P. aeruginosa CDC-0090
In short: as §1

[7] = test system: P. aeruginosa CDC-0095 producing OXA-50, and PAO; settings: Pseudomonas aeruginosa, read-out: Minimum Inhibitory Concentration, P. aeruginosa CDC-0095
In short: as §1

[8] = test system: P. aeruginosa CDC-0054 producing VIM-4, OXA-50, and PAO; settings: Pseudomonas aeruginosa, read-out: Minimum Inhibitory Concentration, P. aeruginosa CDC-0054
In short: as §1

[9] = test system: P. aeruginosa (ΔmexAB-oprM); settings: Pseudomonas aeruginosa, read-out: Minimum Inhibitory Concentration, P. aeruginosa ΔmexAB-OprM
In short: as §1

[10] = test system: P. aeruginosa ATCC 27853; settings: Pseudomonas aeruginosa, ATCC27853, read-out: Minimum Inhibitory Concentration, P. aeruginosa ATCC 27853
In short: as §1

[11] = test system: A. baumannii CDC-0033 producing NDM-1, and OXA-94; settings: Acinetobacter baumannii, read-out: Minimum Inhibitory Concentration, CDC-0033
In short: as §1

[12] = test system: A. baumannii CDC-0083 producing NDM-1, PER-7, OXA-23, and OXA-69; settings: Acinetobacter baumannii, read-out: Minimum Inhibitory Concentration, CDC-0083
In short: as §1

[13] = test system: A. baumannii CDC-0045 producing TEM-1D, OXA-23, and OXA-69; settings: Acinetobacter baumannii, read-out: Minimum Inhibitory Concentration, CDC-0045
[14] = test system: P. aeruginosa CDC-0110; settings: Pseudomonas aeruginosa, CDC0110, read-out: Minimum Inhibitory Concentration, P. aeruginosa CDC-0110
In short: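 MIC is the lowest well showing no visible growth after 16-20 h at 37 °C, starting from 2-8×10^5 CFU/mL in 2-fold serial compound dilutions. Medium: cation-adjusted Mueller Hinton broth iron-depleted with Chelex 100, supplemented back with Ca, Mg and Zn, pH 7.3; CLSI protocol.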

Compound | MIC [1] [µg/mL] | MIC [2] [µg/mL] | MIC [3] [µg/mL] | MIC [4] [µg/mL] | MIC [5] [µg/mL] | MIC [6] [µg/mL] | MIC [7] [µg/mL] | MIC [8] [µg/mL] | MIC [9] [µg/mL] | MIC [10] [µg/mL] | MIC [11] [µg/mL] | MIC [12] [µg/mL] | MIC [13] [µg/mL] | MIC [14] [µg/mL]
O=C(O)c1ccc(C(NC(=O)c2ccc(O)c(O)c2Cl)C(=O)N[C@H]2Cc3cccc(C(=O)O)c3OB2O)cc1F (stereo partly drawn) [Example 7, (3R)-3-(2-(4-carboxy-3-fluorophenyl)-2-(2-chloro-3,4-dihydroxybenzamido)acetamido)-2-hydroxy-3,4-dihydro-2H-benzo[e][1,2]oxaborinine-8-carboxylic acid] | 2 to 4 (≈ 3.49 to 6.98 µM) | 32 to 64 (≈ 55.9 to 112 µM) | 32 to 64 (≈ 55.9 to 112 µM) | 32 to 64 (≈ 55.9 to 112 µM) | 0.25 (≈ 0.437 µM) | 0.5 to 1 (≈ 0.873 to 1.75 µM) | 8 to 16 (≈ 14 to 27.9 µM) | 2 to 4 (≈ 3.49 to 6.98 µM) | 0.25 (≈ 0.437 µM) | 2 to 4 (≈ 3.49 to 6.98 µM) | 32 to 64 (≈ 55.9 to 112 µM) | 32 to 64 (≈ 55.9 to 112 µM) | 32 to 64 (≈ 55.9 to 112 µM) | 2 to 4 (≈ 3.49 to 6.98 µM)
O=C(NC(C(=O)N[C@H]1Cc2ccc(F)c(C(=O)O)c2OB1O)c1ncc(O)cc1F)c1ccc(O)c(O)c1Cl (stereo partly drawn) [Example 8, (3R)-3-(2-(2-chloro-3,4-dihydroxybenzamido)-2-(3-fluoro-5-hydroxypyridin-2-yl)acetamido)-7-fluoro-2-hydroxy-3,4-dihydro-2H-benzo[e][1,2]oxaborinine-8-carboxylic acid] | 2 to 4 (≈ 3.55 to 7.1 µM) | 32 to 64 (≈ 56.8 to 114 µM) | 32 to 64 (≈ 56.8 to 114 µM) | 32 to 64 (≈ 56.8 to 114 µM) | 0.25 (≈ 0.444 µM) | 0.25 (≈ 0.444 µM) | 2 to 4 (≈ 3.55 to 7.1 µM) | 2 to 4 (≈ 3.55 to 7.1 µM) | 2 to 4 (≈ 3.55 to 7.1 µM) | 0.5 to 1 (≈ 0.887 to 1.77 µM) | 32 to 64 (≈ 56.8 to 114 µM) | 32 to 64 (≈ 56.8 to 114 µM) | 32 to 64 (≈ 56.8 to 114 µM) | 0.5 to 1 (≈ 0.887 to 1.77 µM)
O=C(Nc1ccc(O)c(O)c1Cl)NC(C(=O)N[C@H]1Cc2ccc(F)c(C(=O)O)c2OB1O)c1ncc(O)cc1F (stereo partly drawn) [Example 9, (3R)-3-(2-(3-(2-chloro-3,4-dihydroxyphenyl)ureido)-2-(3-fluoro-5-hydroxypyridin-2-yl)acetamido)-7-fluoro-2-hydroxy-3,4-dihydro-2H-benzo[e][1,2]oxaborinine-8-carboxylic acid] | 32 to 64 (≈ 55.3 to 111 µM) | 32 to 64 (≈ 55.3 to 111 µM) | 32 to 64 (≈ 55.3 to 111 µM) | 32 to 64 (≈ 55.3 to 111 µM) | 0.25 (≈ 0.432 µM) | 32 to 64 (≈ 55.3 to 111 µM) | 32 to 64 (≈ 55.3 to 111 µM) | 32 to 64 (≈ 55.3 to 111 µM) | 0.5 to 1 (≈ 0.864 to 1.73 µM) | 8 to 16 (≈ 13.8 to 27.6 µM) | 32 to 64 (≈ 55.3 to 111 µM) | 32 to 64 (≈ 55.3 to 111 µM) | 32 to 64 (≈ 55.3 to 111 µM) | 32 to 64 (≈ 55.3 to 111 µM)
O=C(NC(C(=O)N[C@H]1Cc2ccc(F)c(C(=O)O)c2OB1O)c1ncc(O)cc1F)c1c(F)cc(O)c(O)c1Cl (stereo partly drawn) [Example 10, (3R)-3-(2-(2-chloro-6-fluoro-3,4-dihydroxybenzamido)-2-(3-fluoro-5-hydroxypyridin-2-yl)acetamido)-7-fluoro-2-hydroxy-3,4-dihydro-2H-benzo[e][1,2]oxaborinine-8-carboxylic acid] | 32 to 64 (≈ 55 to 110 µM) | 32 to 64 (≈ 55 to 110 µM) | 32 to 64 (≈ 55 to 110 µM) | 32 to 64 (≈ 55 to 110 µM) | 0.25 (≈ 0.43 µM) | 0.5 to 1 (≈ 0.86 to 1.72 µM) | 2 to 4 (≈ 3.44 to 6.88 µM) | 2 to 4 (≈ 3.44 to 6.88 µM) | 0.5 to 1 (≈ 0.86 to 1.72 µM) | 0.5 to 1 (≈ 0.86 to 1.72 µM) | 32 to 64 (≈ 55 to 110 µM) | 32 to 64 (≈ 55 to 110 µM) | 32 to 64 (≈ 55 to 110 µM) | 0.5 to 1 (≈ 0.86 to 1.72 µM)
CCN1CCN(C(=O)NC(C(=O)N[C@H]2Cc3ccc(F)c(C(=O)O)c3OB2O)c2c(F)cc(O)c(O)c2F)C(=O)C1=O (stereo partly drawn) [Example 36, (3R)-3-(2-(2,6-difluoro-3,4-dihydroxyphenyl)-2-(4-ethyl-2,3-dioxopiperazine-1-carboxamido)acetamido)-7-fluoro-2-hydroxy-3,4-dihydro-2H-benzo[e][1,2]oxaborinine-8-carboxylic acid] | 0.25 (≈ 0.421 µM) | 0.5 to 1 (≈ 0.841 to 1.68 µM) | 0.5 to 1 (≈ 0.841 to 1.68 µM) | 0.25 (≈ 0.421 µM) | 0.25 (≈ 0.421 µM) | 0.5 to 1 (≈ 0.841 to 1.68 µM) | 8 to 16 (≈ 13.5 to 26.9 µM) | 0.5 to 1 (≈ 0.841 to 1.68 µM) | 0.25 (≈ 0.421 µM) | 0.5 to 1 (≈ 0.841 to 1.68 µM) | 0.5 to 1 (≈ 0.841 to 1.68 µM) | 0.25 (≈ 0.421 µM) | 0.25 (≈ 0.421 µM) | 0.5 to 1 (≈ 0.841 to 1.68 µM)
O=C(O)c1c(F)ccc2c1OB(O)[C@@H](NC(=O)C(NC(=O)N1CCN(CCF)C(=O)C1=O)c1c(F)cc(O)c(O)c1F)C2 (stereo partly drawn) [Example 37, (3R)-3-(2-(2,6-difluoro-3,4-dihydroxyphenyl)-2-(4-(2-fluoroethyl)-2,3-dioxopiperazine-1-carboxamido)acetamido)-7-fluoro-2-hydroxy-3,4-dihydro-2H-benzo[e][1,2]oxaborinine-8-carboxylic acid] | 0.25 (≈ 0.408 µM) | 2 to 4 (≈ 3.27 to 6.53 µM) | 2 to 4 (≈ 3.27 to 6.53 µM) | 0.25 (≈ 0.408 µM) | 0.25 (≈ 0.408 µM) | 2 to 4 (≈ 3.27 to 6.53 µM) | 8 to 16 (≈ 13.1 to 26.1 µM) | 2 to 4 (≈ 3.27 to 6.53 µM) | 0.25 (≈ 0.408 µM) | 2 to 4 (≈ 3.27 to 6.53 µM) | 2 to 4 (≈ 3.27 to 6.53 µM) | 0.5 to 1 (≈ 0.817 to 1.63 µM) | 0.5 to 1 (≈ 0.817 to 1.63 µM) | 0.5 to 1 (≈ 0.817 to 1.63 µM)
O=C(O)c1c(F)ccc2c1OB(O)[C@@H](NC(=O)C(NC(=O)N1CCN(CCBr)C(=O)C1=O)c1c(F)cc(O)c(O)c1F)C2 (stereo partly drawn) [Example 38, (3R)-3-(2-(4-(2-bromoethyl)-2,3-dioxopiperazine-1-carboxamido)-2-(2,6-difluoro-3,4-dihydroxyphenyl)acetamido)-7-fluoro-2-hydroxy-3,4-dihydro-2H-benzo[e][1,2]oxaborinine-8-carboxylic acid] | 0.25 (≈ 0.371 µM) | 2 to 4 (≈ 2.97 to 5.94 µM) | 2 to 4 (≈ 2.97 to 5.94 µM) | 0.25 (≈ 0.371 µM) | 0.25 (≈ 0.371 µM) | 2 to 4 (≈ 2.97 to 5.94 µM) | 8 to 16 (≈ 11.9 to 23.8 µM) | 8 to 16 (≈ 11.9 to 23.8 µM) | 0.25 (≈ 0.371 µM) | 2 to 4 (≈ 2.97 to 5.94 µM) | 2 to 4 (≈ 2.97 to 5.94 µM) | 0.5 to 1 (≈ 0.743 to 1.49 µM) | 0.5 to 1 (≈ 0.743 to 1.49 µM) | 0.5 to 1 (≈ 0.743 to 1.49 µM)
CCN1CCN(C(=O)NC(C(=O)N[C@H]2Cc3ccc(F)c(C(=O)O)c3OB2O)c2cc(F)c(O)c(O)c2Cl)C(=O)C1=O (stereo partly drawn) [Example 42, (3R)-3-(2-(2-chloro-5-fluoro-3,4-dihydroxyphenyl)-2-(4-ethyl-2,3-dioxopiperazine-1-carboxamido)acetamido)-7-fluoro-2-hydroxy-3,4-dihydro-2H-benzo[e][1,2]oxaborinine-8-carboxylic acid] | 0.25 (≈ 0.409 µM) | 0.5 to 1 (≈ 0.819 to 1.64 µM) | 0.5 to 1 (≈ 0.819 to 1.64 µM) | 0.25 (≈ 0.409 µM) | 0.25 (≈ 0.409 µM) | 0.25 (≈ 0.409 µM) | 0.5 to 1 (≈ 0.819 to 1.64 µM) | 0.5 to 1 (≈ 0.819 to 1.64 µM) | 0.25 (≈ 0.409 µM) | 0.5 to 1 (≈ 0.819 to 1.64 µM) | 0.5 to 1 (≈ 0.819 to 1.64 µM) | 0.25 (≈ 0.409 µM) | 0.25 (≈ 0.409 µM) | 0.25 (≈ 0.409 µM)
